Assay results: the supplement of paper PMC12533247

How the values were obtained:
[1] = system: HSV-1 K26-GFP infected 3D skin equivalent; assay: % activity on HSV-1 GFP signal (0 = infected DMSO control, -100 = uninfected control); higher = higher signal (negative = inhibition / toxicity); conditions: time (h post infection): 48
Description: (§1)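 Triplicate dose-response (0.04 to 10 uM) of 11 top compounds in 3D bioprinted skin equivalents (submerged and ALI models) infected with GFP-HSV-1 K26 at MOI 0.1 and fixed at 48 hpi. GFP (virus) and tdTomato (fibroblast viability) signals are normalised to per-plate controls.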

[2] = system: HSV-1 K26-GFP infected primary human skin cells; assay: % change of HSV-1 GFP signal vs untreated infected cells; higher = less antiviral inhibition
Description: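 2D primary donor-derived keratinocytes (read at 20 hpi) and donor-matched dermal fibroblasts (read at 48 hpi) infected with GFP-HSV-1 K26 at MOI 1 and treated 1 h later with compound dilutions. IncuCyte GFP integrated intensity is normalised by subtracting mock-infected wells and dividing by untreated infected wells, shown as % change (-100 = full inhibition).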

[3] = system: HSV-1 K26-GFP infected 3D skin equivalent; assay: % change of tdTomato fibroblast signal relative to infected DMSO control; higher = higher signal (negative = inhibition / toxicity); conditions: time (h post infection): 48
Description: as §1

[4] = system: HSV-1 K26-GFP infected primary human skin cells; assay: % change of HSV-1 GFP signal vs untreated infected cells; higher = less antiviral inhibition; conditions: cell type: primary dermal fibroblasts, time (h post infection): 48
Description: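 2D primary donor-derived dermal fibroblasts infected with GFP-HSV-1 K26 at MOI 1, treated 1 h later with compound dilutions and read at 48 hpi on IncuCyte. GFP integrated intensity is normalised to mock-infected and untreated infected wells (% change; -100 = full inhibition).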

CC(=O)O[C@H]1C[C@H](O[C@H]2[C@@H](O)C[C@H](O[C@H]3[C@@H](O)C[C@H](O[C@H]4CC[C@@]5(C)[C@H](CC[C@@H]6[C@@H]5C[C@@H](O)[C@]5(C)[C@@H](C7=CC(=O)OC7)CC[C@]65O)C4)O[C@@H]3C)O[C@@H]2C)O[C@H](C)[C@H]1O[C@@H]1O[C@H](CO)[C@@H](O)[C@H](O)[C@H]1O [Lanatoside C]
Conditions | % activity on HSV-1 GFP signal, [1] [%] | % change of tdTomato fibroblast signal, [3] [%]
0.041152 µM, model: ALI | -34.1 | 2.37
0.041152 µM, model: submerged | -5.47 | -1.16
0.123457 µM, model: ALI | -95.2 | 5.13
0.123457 µM, model: submerged | -72.7 | -17.7
0.37037 µM, model: ALI | -105 | -2.13
0.37037 µM, model: submerged | -99.6 | -23.6
1.111111 µM, model: ALI | -104 | 0.581
1.111111 µM, model: submerged | -103 | -37.1
3.33333 µM, model: ALI | -104 | -5.14
3.33333 µM, model: submerged | -104 | -52.9
10 µM, model: ALI | -99.5 | -4.98
10 µM, model: submerged | -107 | -56.04

% change of HSV-1 GFP signal [%], [2]
Conditions | 0.001 µM | 0.003 µM | 0.0091 µM | 0.0274 µM | 0.0823 µM | 0.2469 µM | 0.7407 µM | 2.2222 µM | 6.6667 µM | 20 µM
cell type: primary dermal fibroblasts, donor: 5, time (h post infection): 48 | -2.98 | -9.39 | -4.44 | -5.88 | -21.6 | -99.19 | -99.81 | -99.972 | -99.993 | -99.985
cell type: primary keratinocytes, donor: 3, time (h post infection): 20 | 4.49 | 6.12 | -2.17 | 7.86 | -16.9 | -96 | -99.91 | -99.948 | -99.8 | -99.941
cell type: primary keratinocytes, donor: 4, time (h post infection): 20 | -0.192 | -0.172 | -18.5 | -9.65 | -38.4 | -79.3 | -100.1 | -100.1 | -100.1 | -100.07
cell type: primary keratinocytes, donor: 5, time (h post infection): 20 | 12.3 | 12.4 | 10 | -3.35 | -66 | -99.66 | -99.948 | -99.893 | -99.85 | -99.904

CC1(C)CC(=O)c2c(C(F)(F)F)nn(-c3ccc(C(N)=O)c(N[C@H]4CC[C@H](O)CC4)c3)c2C1 [SNX-2112]
Conditions | % activity on HSV-1 GFP signal [%] | % change of HSV-1 GFP signal [%] | % change of tdTomato fibroblast signal [%]
[1], 0.041152 µM, model: ALI | -92.8 | – | –
[1], 0.041152 µM, model: submerged | -58.7 | – | –
[1], 0.123457 µM, model: ALI | -99.7 | – | –
[1], 0.123457 µM, model: submerged | -81.7 | – | –
[1], 0.37037 µM, model: ALI | -98.9 | – | –
[1], 0.37037 µM, model: submerged | -98.1 | – | –
[1], 1.111111 µM, model: ALI | -103 | – | –
[1], 1.111111 µM, model: submerged | -101 | – | –
[1], 3.33333 µM, model: ALI | -98.4 | – | –
[1], 3.33333 µM, model: submerged | -105 | – | –
[1], 10 µM, model: ALI | -107 | – | –
[1], 10 µM, model: submerged | -102 | – | –
[3], 0.041152 µM, model: ALI | – | – | 0.975
[3], 0.041152 µM, model: submerged | – | – | -4.63
[3], 0.123457 µM, model: ALI | – | – | -7.26
[3], 0.123457 µM, model: submerged | – | – | -2.18
[3], 0.37037 µM, model: ALI | – | – | -17.9
[3], 0.37037 µM, model: submerged | – | – | -23.3
[3], 1.111111 µM, model: ALI | – | – | -33.5
[3], 1.111111 µM, model: submerged | – | – | -52.2
[3], 3.33333 µM, model: ALI | – | – | -36.3
[3], 3.33333 µM, model: submerged | – | – | -55
[3], 10 µM, model: ALI | – | – | -32.3
[3], 10 µM, model: submerged | – | – | -50.9
[4], 0.001 µM, donor: 3 | – | 3.58 | –
[4], 0.001 µM, donor: 4 | – | 7.21 | –
[4], 0.003 µM, donor: 3 | – | 2.41 | –
[4], 0.003 µM, donor: 4 | – | 7.68 | –
[4], 0.0091 µM, donor: 3 | – | 3.09 | –
[4], 0.0091 µM, donor: 4 | – | 10 | –
[4], 0.0274 µM, donor: 3 | – | -21.5 | –
[4], 0.0274 µM, donor: 4 | – | -8.2 | –
[4], 0.0823 µM, donor: 3 | – | -87.9 | –
[4], 0.0823 µM, donor: 4 | – | -77.6 | –
[4], 0.2469 µM, donor: 3 | – | -98.67 | –
[4], 0.2469 µM, donor: 4 | – | -98.8 | –
[4], 0.7407 µM, donor: 3 | – | -99.34 | –
[4], 0.7407 µM, donor: 4 | – | -99.59 | –
[4], 2.2222 µM, donor: 3 | – | -99.32 | –
[4], 2.2222 µM, donor: 4 | – | -99.73 | –
[4], 6.6667 µM, donor: 3 | – | -99.47 | –
[4], 6.6667 µM, donor: 4 | – | -99.66 | –
[4], 20 µM, donor: 3 | – | -99.48 | –
[4], 20 µM, donor: 4 | – | -99.71 | –

% change of HSV-1 GFP signal [%], [2]
Conditions | 0.001 µM | 0.003 µM | 0.0091 µM | 0.0274 µM | 0.0823 µM | 0.2469 µM | 0.7407 µM | 2.2222 µM | 6.6667 µM | 20 µM
cell type: primary dermal fibroblasts, donor: 5, time (h post infection): 48 | – | -7.73 | -15.6 | -26.2 | -67.5 | -95.5 | -98.7 | -98.8 | -99.29 | -98.8
cell type: primary keratinocytes, donor: 3, time (h post infection): 20 | 9.13 | 13.4 | 18.9 | 18.3 | -27.7 | -93.6 | -99.06 | -99.56 | -99.47 | -99.7
cell type: primary keratinocytes, donor: 4, time (h post infection): 20 | 9.33 | 1.99 | -3 | -5.23 | -58 | -98.23 | -99.906 | -100.1 | -100.02 | -100
cell type: primary keratinocytes, donor: 5, time (h post infection): 20 | 8.24 | -1.8 | -0.244 | -15.1 | -81.52 | -98.96 | -99.957 | -99.916 | -99.948 | -99.936
